In PubChem BioAssay (NCI) one finds TGI and GI50 data, which are given here for eleven compounds.

Several values for one entry are separate records, joined by “and”; a condition that tells them apart may be missing. Equal values may be shown once.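 Cultured in 96-well plates, cells were exposed to test compound for 48 hours across five concentrations. Abbreviation: GI50, concentration required for 50% inhibition of growth. TGI denotes the concentration required for complete inhibition of growth.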

Some test systems named below: SR leukemia; SN12C renal; CAKI-1 renal; MDA-MB-435; OVCAR-5 ovarian; NCI-H23 lung; NCI-H226 lung; COLO 205 colon; DU-145 prostate; HCC-2998 colon; OVCAR-4 ovarian.
Test in all cases: inhibition of tumour cell growth, NCI panel, 48 h

On to `O=[N+]([O-])c1ccc(N2N=C(c3ccc4ccccc4c3O)CC2c2ccc(Cl)cc2)c([N+](=O)[O-])c1` (configuration not stated), for which the TGI in the assay with SR leukemia was 40.6 µM; with SN12C renal it was greater than 100 µM; with CAKI-1 renal, greater than 100 µM; in the assay with MDA-MB-435, 33 µM; in the assay on OVCAR-5 ovarian it was greater than 100 µM; in the assay on NCI-H23 lung it was greater than 100 µM. Besides, the TGI in the assay with NCI-H226 lung, in the assay on COLO 205 colon, with DU-145 prostate, in the assay with HCC-2998 colon and with OVCAR-4 ovarian was greater than 100 µM throughout.
In the case of `O=[N+]([O-])c1ccc(O)c(/C=N/c2nc(-c3ccccc3)cs2)c1`, the TGI in the assay with SR leukemia was 21.7 µM; in the assay with SN12C renal, greater than 100 µM; in the assay with CAKI-1 renal, greater than 100 µM; in the assay with MDA-MB-435, greater than 100 µM; in the assay on OVCAR-5 ovarian it was greater than 100 µM; with NCI-H23 lung, 49.6 µM. Further, the TGI with NCI-H226 lung was 85.3 µM; with COLO 205 colon it was 56.7 µM; in the assay on DU-145 prostate it was greater than 87.1 µM; with HCC-2998 colon, greater than 61.4 µM; with OVCAR-4 ovarian it was greater than 100 µM.
Turning to `O=[N+]([O-])c1cccc(Cl)c1Oc1ccc(S(=O)(=O)/N=C(\NO)Nc2ccc(Cl)cc2)cc1`, the TGI was 21.1 µM in the assay with SR leukemia; 25.7 µM in the assay with SN12C renal; 25.8 µM in the assay with CAKI-1 renal; 29.2 µM with MDA-MB-435; 32.8 µM in the assay on OVCAR-5 ovarian; 33.9 µM in the assay with NCI-H23 lung. The TGI in the assay with NCI-H226 lung came out at 44.4 µM; in the assay with COLO 205 colon, 31 µM; in the assay with DU-145 prostate, 30 µM; with HCC-2998 colon, 24 µM; in the assay with OVCAR-4 ovarian, 26.3 µM.
As to `CCCCCN(CCCCC)CC(C)(C)C(O)c1ccc(OC)c2ccccc12` (configuration not stated), the TGI in the assay with SR leukemia is 11.3 µM; in the assay on SN12C renal it was 25.2 µM; in the assay on CAKI-1 renal, 28 µM; in the assay with MDA-MB-435, 29.8 µM; with OVCAR-5 ovarian it was 31.4 µM; in the assay with NCI-H23 lung it was 32.3 µM. For the same compound, the TGI with NCI-H226 lung was found to be 33.6 µM; in the assay with COLO 205 colon it was 40.6 µM; with DU-145 prostate, 28.2 µM; in the assay with HCC-2998 colon, 31.4 µM; in the assay on OVCAR-4 ovarian, 27.9 µM.
For the compound `Cc1cc(N(CCC#N)CCC#N)ccc1/C=C1\SC(=S)NC1=O`, the TGI with SR leukemia, in the assay on SN12C renal, in the assay on CAKI-1 renal, with MDA-MB-435, in the assay with OVCAR-5 ovarian and in the assay with NCI-H23 lung was greater than 100 µM throughout. The TGI in the assay on NCI-H226 lung, in the assay with COLO 205 colon, with DU-145 prostate, in the assay with HCC-2998 colon and with OVCAR-4 ovarian was greater than 100 µM in each case.
For `CCN(CC)CCOC(=O)Cc1cccc2c(=O)cc(-c3ccccc3)oc12`, the TGI in the assay on SR leukemia is 37.9 µM; with SN12C renal it was 62.5 µM and > 320 µM; in the assay with MDA-MB-435, 62.5 µM; in the assay on OVCAR-5 ovarian it was 62.5 µM and > 197 µM; in the assay on NCI-H23 lung, 62.5 µM and > 147 µM; in the assay on NCI-H226 lung, 62.5 µM and > 129 µM. In addition, the TGI was 54.6 µM in the assay with DU-145 prostate; 62.5 µM and > 102 µM with HCC-2998 colon; 62.5 µM in the assay on OVCAR-4 ovarian. The GI50 was 92.8 µM with SN12C renal; 252 µM with CAKI-1 renal; 137 µM in the assay on OVCAR-5 ovarian; 58.7 µM with NCI-H23 lung; 50.7 µM with NCI-H226 lung; 439 µM with COLO 205 colon. The values for the GI50 with HCC-2998 colon and in the assay on OVCAR-4 ovarian were 34.1 µM and 18.3 µM, respectively.
Regarding `CCOC(=O)C(=CN1CCNC1=S)C(=O)OCC`, the TGI in the assay with SR leukemia, in the assay with SN12C renal, in the assay with CAKI-1 renal, in the assay on MDA-MB-435, with OVCAR-5 ovarian and in the assay on NCI-H23 lung was greater than 100 µM throughout. For the same compound, the TGI in the assay on NCI-H226 lung, in the assay with COLO 205 colon, with DU-145 prostate, with HCC-2998 colon and with OVCAR-4 ovarian was greater than 100 µM throughout.
Take `Nc1nc(=O)n(C2OC(CO)C(O)C2O)c2ncc(-c3ccc(-c4ccccc4)cc3)nc12` (configuration not stated): the TGI in the assay on SR leukemia, in the assay with SN12C renal, in the assay on CAKI-1 renal, with MDA-MB-435, with OVCAR-5 ovarian and in the assay on NCI-H23 lung was greater than 100 µM each time. Moreover, the TGI was 76.3 µM with NCI-H226 lung; greater than 100 µM in the assay on COLO 205 colon; greater than 100 µM with DU-145 prostate; greater than 100 µM with HCC-2998 colon; greater than 100 µM in the assay with OVCAR-4 ovarian.
As to `CN(C)CC1CCC/C(=C\c2ccc(OC(=O)/C=C/c3ccc(Cl)c(Cl)c3)cc2)C1=O` (configuration not stated), the TGI in the assay on SR leukemia was 3.54 µM; in the assay with SN12C renal, 5.64 µM; with CAKI-1 renal, 5.81 µM; in the assay with MDA-MB-435 it was greater than 60.1 µM; in the assay on OVCAR-5 ovarian, greater than 65.3 µM; with NCI-H23 lung, 14.4 µM. The TGI was 4.56 µM with NCI-H226 lung; 3.93 µM in the assay on COLO 205 colon; greater than 93.3 µM in the assay on DU-145 prostate; 10.1 µM with HCC-2998 colon; greater than 60.3 µM in the assay on OVCAR-4 ovarian.
For `O=C1CS(=O)(=O)C(c2cccc(Oc3ccccc3)c2)N1c1ccccc1` (configuration not stated), the TGI in the assay on SR leukemia was 57 µM; in the assay on SN12C renal it was 39.7 µM; in the assay on CAKI-1 renal, 58.3 µM; in the assay with MDA-MB-435, 68.2 µM; in the assay with OVCAR-5 ovarian, greater than 100 µM; with NCI-H23 lung, 94.6 µM. Also, the TGI in the assay with NCI-H226 lung is 45.6 µM; with COLO 205 colon it was 37.2 µM; with DU-145 prostate, greater than 100 µM; with HCC-2998 colon, 35 µM; in the assay on OVCAR-4 ovarian, greater than 100 µM.
As to `CC12ON(P(=O)(c3ccccc3)c3ccccc3)C(C)(c3ccccc31)c1ccccc12`, the TGI in the assay on SR leukemia, in the assay with SN12C renal, with CAKI-1 renal, with MDA-MB-435, with OVCAR-5 ovarian and in the assay with NCI-H23 lung was greater than 100 µM throughout. Also, the TGI in the assay with NCI-H226 lung, in the assay with COLO 205 colon, in the assay with DU-145 prostate, in the assay with HCC-2998 colon and in the assay with OVCAR-4 ovarian was greater than 100 µM each time.
